Results published in patent US20240116985A1, “STAPLED PEPTIDES AND METHODS THEREOF” (priority 2020, published 2024).
Values after ≈ are worked out from the molar mass of the structure shown. Like-named read-outs stand apart in the source and are kept apart here.

Legend:
[1] = biological target: T1, beta-catenin/TCF4 engagement (Homo sapiens, UniProt P35222); assay: Nano-BRET target engagement assay (B-cat-Halo & TCF4-Luc in HEK293 cells); format: cell-based; settings: read-out: NanoBRET Abs IC50
T1 construct: expressed in transfected cells; host or cells: HEK293
T1 sequence (P35222 1-781): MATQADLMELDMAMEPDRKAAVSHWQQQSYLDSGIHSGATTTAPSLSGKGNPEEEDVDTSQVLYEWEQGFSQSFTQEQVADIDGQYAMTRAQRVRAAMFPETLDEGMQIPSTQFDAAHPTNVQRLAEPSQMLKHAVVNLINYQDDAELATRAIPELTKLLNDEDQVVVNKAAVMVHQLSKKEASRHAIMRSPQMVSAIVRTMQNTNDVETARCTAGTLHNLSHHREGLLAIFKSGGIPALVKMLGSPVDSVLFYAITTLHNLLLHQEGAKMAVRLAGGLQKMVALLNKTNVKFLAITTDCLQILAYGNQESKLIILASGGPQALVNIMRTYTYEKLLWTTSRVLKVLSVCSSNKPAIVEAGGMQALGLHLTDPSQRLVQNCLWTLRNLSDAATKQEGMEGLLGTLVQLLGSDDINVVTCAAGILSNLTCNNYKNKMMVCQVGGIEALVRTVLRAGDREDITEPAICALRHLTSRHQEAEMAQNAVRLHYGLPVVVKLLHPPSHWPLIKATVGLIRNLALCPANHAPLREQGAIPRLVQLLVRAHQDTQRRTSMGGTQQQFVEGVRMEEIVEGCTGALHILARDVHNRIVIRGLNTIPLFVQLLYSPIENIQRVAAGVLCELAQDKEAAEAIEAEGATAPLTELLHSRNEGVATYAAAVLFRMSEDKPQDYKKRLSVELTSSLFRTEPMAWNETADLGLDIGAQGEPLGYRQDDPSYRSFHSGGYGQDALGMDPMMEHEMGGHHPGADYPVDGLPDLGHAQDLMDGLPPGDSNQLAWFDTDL

[2] = biological target: T2, full-length beta-Catenin (Uniprot ID P35222) (Homo sapiens, UniProt P35222); assay: Fluorescence polarization IC50 (beta-catenin / 5FAM-TCF4 10-53 competition); format: binding; settings: read-out: beta-Catenin FP IC50
T2 construct: 10 nM full-length beta-Catenin (Uniprot ID P35222)
T2 sequence (P35222 1-781): T1 sequence (P35222 1-781)

[3] = test system: TCF/LEF luciferase Reporter in DLD1 cells; assay: TCF reporter assay (DLD1 TCF/LEF luciferase reporter, Bright-Glo); format: cell-based; settings: read-out: DLD1 4% Abs IC50, 4%
Description: Those skilled in the art will appreciate that other suitable reagents may be utilized and various parameters may be adjusted.
DLD1 reporter cell line was generated by using TCF/LEF luciferase Reporter Lentivirus (BPS Bioscience Catalog #79787). Parental DLD1 cells (ATCC@ CCL-221) were transfected with the lentivirus and followed by 3-day puromycin selection. Single clone was selected for Reporter assay.
On Day 1, cultured cells in flasks that are no more than about 60-70% confluent were washed with PBS and typsinized in 3 mL/T75 until cells were free floating. Spin down cells for 5 minutes at 1100RPM. While cells spin, determine the number of plates (3 compounds per plate) needed. After spinning, aspirate the supernatant gently and add 10 mL media (RPMI+4% FBS), and re-suspend and mix the cells gently. Count the cells twice in the cell counter Countess and take average of both the counts, and determine how many cells are needed. After plating cells at 5000 cells/well, seal with aerseal film. 90 uL cells/well. Incubate at 37° C. overnight, tap gently to mix and don't stack plates.
On Day 2, compounds were added. Stock solution was 10 mM. Make the DMSO containing media by adding 36 uL DMSO to 10 mL of media. Make the dilution wells by transferring 100 uL DMSO+Media into rows B-F of a protein LoBind 96-well plate. Row G is empty. Add any extra DMSO+media to row H. Transfer 4 uL of stock solution to Row A. One compound per column. Add 196 uL media to Row A, no DMSO in the media. Concentration of Row A was 200 uM. Mix well and do a 6 pt, 1:2 serial dilution, mix ×10 per transfer and change tips before each transfer. Removed excess volume from final well (row F) and discard. Transfer 10 uL of the compound containing media to cells with a multichannel according to plate maps. Add 60 uL DMSO containing media to the DMSO wells. The edge wells were typically not used in the assay and could be ignored if needed or replaced with PBS, but there typically were liquids in the wells. Cover plates with breathable plate sealer and incubate overnight.
A 96-well plate may be utilized to prepare dilution series for up to 12 compounds, each with several concentrations (e.g., 200, 100, 50, 25, 12.5, 6.25 and 0 uM; can be utilized as 100× depending on final test concentrations).
0 uM is the DMSO control for the whole plate. Edge well filled with 90 uL cells+10 uL DMSO containing media.
On Day 3, luciferase levels were assessed using Bright-Glo (Promega). Equilibrate Bright-Glo to room temperature before addition. 7 mL of mixed Bright-Gbo per plate. Unused Bright-Glo could be store at −80° C. Reconstituted reagent can be stored for up to 1 month at −80° C., or after one freeze-thaw. When ready to read, remove plates from incubator and let sit at room temperature for 15 minutes. Typically stagger taking out plates if reading multiple plates before adding the Bright-Glo. Add 90 uL/well Bright-Glo and shake gently for 3 minutes. Read luminescence on GloMax immediately using ‘BrightGlo’ programs.
Cellular activity was assessed using CTG. Equilibrate CTG reagents to room temperature. Equilibrate plates to room temp, e.g. 15 min. Use same time length for all plates. Add CTG reagent, 25 uL if using undiluted, or 90 uL if diluted 1 to 4. Shake for 2 min to induce cell lysis. Allow plate to incubate at RT for 10 min to stabilize lumine sent signal. Read luminesence using program ‘CellTiter-Glo’. Use Prism to find the Absolute IC50 (AbsIC50=X[50]) of each compound.

Solubility in PBS = format: physicochemical; settings: Solubility (uM)
Summary of the method: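 Steps: ultracentrifuge the peptide PBS solution, inject the supernatant on HPLC, inject a 50 μM peptide DMSO solution as reference, then calculate solubility as area ratio (PBS/DMSO) × 50 uM.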

CHI Log D procedure = format: physicochemical; settings: pH 7.4, CHI Log D

| SMILES | IC50 ([2]; fluorescence polarization) [µM] | IC50 [1] [µM] | Solubility (Solubility in PBS) [µM] | chromatographic logD (CHI Log D procedure) | IC50 [2] [µM] | further results |
| --- | --- | --- | --- | --- | --- | --- |
| CC(=O)N1CCC[C@]12CC=CCCCC1(CCCC=CCCCOC(=O)N3CC[C@@](C(=O)N[C@@H](Cc4ccsc4)C(=O)N[C@@H](Cc4csc5ccccc45)C(=O)N[C@@H](CO)C(N)=O)(C3)NC(=O)[C@H](CC(C)C)NC(=O)[C@H](Cc3ccccc3)NC(=O)[C@H](C)NC(=O)[C@H](C)NC(=O)[C@H](Cc3ccccc3C(=O)O)NC(=O)[C@H](CC(=O)O)NC1=O)NC(=O)[C@H](CC(C)(C)C)NC(=O)[C@H](CC(=O)O)NC2=O (single isomer, unassigned) [I-1667, Ac-PL3-Asp-Npg-B5-Asp-2COOHF-Ala-Ala-Phe-Leu-PyrS2-3Thi-BztA-Ser-NH2] | 0.013 | – | – | – | – | IC50 ([1]; absolute IC50): 5.6 µM; IC50 ([3]; DLD1 reporter assay, absolute IC50): 1.3 µM |
| CC(=O)N1CCC[C@]12CC=CCCCC1(CCCC=CCCCOC(=O)N3CC[C@@](C(=O)N[C@@H](Cc4ccccc4)C(=O)N[C@@H](Cc4csc5ccccc45)C(=O)N[C@@H](CCC(N)=O)C(N)=O)(C3)NC(=O)[C@H](CO)NC(=O)[C@H](Cc3ccc(C(F)(F)F)cc3)NC(=O)[C@H](C)NC(=O)[C@H](C)NC(=O)[C@H](CC(=O)O)NC(=O)[C@H](CC(=O)O)NC1=O)NC(=O)[C@H](CC1CCCCC1)NC(=O)[C@H](CC(=O)O)NC2=O (stereo partly drawn) [I-1126, Ac-PL3-Asp-Cha-B5-Asp-Asp-Ala-Ala-4F3MeF-Ser-PyrS2-Phe-BztA-Gln-NH2] | – | 26.8 | 49 (≈ 97 µg/mL) | 2.42 | 0.032 | – |
| COc1cccc(C[C@@H]2NC(=O)[C@H](C)NC(=O)[C@H](C)NC(=O)[C@H](CC(=O)O)NC(=O)[C@H](CC(=O)O)NC(=O)C3(CCCC=CCCCOC(=O)N4CC[C@@](C(=O)N[C@@H](Cc5ccccc5)C(=O)N[C@@H](Cc5csc6ccccc56)C(=O)N[C@@H](CCC(N)=O)C(N)=O)(C4)NC(=O)[C@H](CC(C)C)NC2=O)CCCC=CC[C@]2(CCCN2C(C)=O)C(=O)N[C@@H](CC(=O)O)C(=O)N[C@@H](CC(C)(C)C)C(=O)N3)c1 (stereo partly drawn) [I-1127, Ac-PL3-Asp-Npg-B5-Asp-Asp-Ala-Ala-3OMeF-Leu-PyrS2-Phe-BztA-Gln-NH2] | – | 5.4 | 47 (≈ 91.2 µg/mL) | 2.18 | 0.018 | – |
| CC(=O)N1CCC[C@]12CC=CCCCC1(CCCC=CCCCOC(=O)N3CC[C@@](C(=O)N[C@@H](Cc4ccccc4)C(=O)N[C@@H](Cc4csc5ccccc45)C(=O)N[C@@H](CCC(N)=O)C(N)=O)(C3)NC(=O)[C@H](CC(C)C)NC(=O)[C@H](Cc3cccc(C(F)(F)F)c3)NC(=O)[C@H](C)NC(=O)[C@H](C)NC(=O)[C@H](CC(=O)O)NC(=O)[C@H](CC(=O)O)NC1=O)NC(=O)[C@H](CC(C)(C)C)NC(=O)[C@H](CC(=O)O)NC2=O (stereo partly drawn) [I-1128, Ac-PL3-Asp-Npg-B5-Asp-Asp-Ala-Ala-3F3MeF-Leu-PyrS2-Phe-BztA-Gln-NH2] | – | 8.1 | 23 (≈ 45.5 µg/mL) | 2.3 | 0.02 | – |
| CC(=O)N1CCC[C@]12CC=CCCCC1(CCCC=CCCCOC(=O)N3CC[C@@](C(=O)N[C@@H](Cc4ccccc4C(F)(F)F)C(=O)N[C@@H](Cc4csc5ccccc45)C(=O)N[C@@H](CCC(N)=O)C(N)=O)(C3)NC(=O)[C@H](CC(C)C)NC(=O)[C@H](Cc3ccccc3)NC(=O)[C@H](C)NC(=O)[C@H](C)NC(=O)[C@H](Cc3cccc(C(=O)O)c3)NC(=O)[C@H](CC(=O)O)NC1=O)NC(=O)[C@H](CC(C)(C)C)NC(=O)[C@H](CC(=O)O)NC2=O (stereo partly drawn) [I-1466, Ac-PL3-Asp-Npg-B5-Asp-3COOHF-Ala-Ala-Phe-Leu-PyrS2-2F3MeF-BztA-Gln-NH2] | – | – | – | – | 0.01 | IC50 ([3]; DLD1 reporter, absolute IC50): 0.7 µM |
| CC(=O)N1CCC[C@]12CC=CCCCC1(CCCC=CCCCOC(=O)N3CC[C@@](C(=O)N[C@@H](Cc4ccsc4)C(=O)N[C@@H](Cc4csc5ccccc45)C(=O)N[C@@H](CCCNC(=N)N)C(N)=O)(C3)NC(=O)[C@H](CC(N)=O)NC(=O)[C@H](Cc3ccccc3)NC(=O)[C@H](C)NC(=O)C(C)(C)NC(=O)[C@H]([C@@H](C)O)NC(=O)[C@H](CC(N)=O)NC1=O)NC(=O)[C@H](CC(C)(C)C)NC(=O)[C@H](CC(=O)O)NC2=O (stereo partly drawn) [I-2413, Ac-PL3-Asp-Npg-B5-Asn-Thr-Aib-Ala-Phe-Asn-PyrS2-3Thi-BztA-Arg-NH2] | 0.133 | – | – | – | – | IC50 ([3]; DLD1 reporter, absolute IC50): > 20 µM |
| CC(C)C[C@H](NC(=O)[C@]12CCN(C1)C(=O)OCCCCCCCCC1(CCCCCCc3ccccc3C(=O)N3CCC[C@@]3(C)C(=O)N[C@@H](CC(=O)O)C(=O)N1)C(=O)N[C@@H](C)C(=O)N[C@@H](CC(=O)O)C(=O)N[C@@H](CC(=O)O)C(=O)N[C@@H](C)C(=O)N[C@@H](C)C(=O)N[C@@H](Cc1ccccc1)C(=O)N2)C(=O)N[C@@H](Cc1ccsc1)C(=O)N[C@@H](Cc1csc2ccccc12)C(=O)N[C@@H](CCC(N)=O)C(N)=O (stereo partly drawn) [I-2606, BzAm2Allyl-MePro-Asp-B5-Ala-Asp-Asp-Ala-Ala-Phe-PyrS2-Leu-3Thi-BztA-Gln-NH2] | 0.734 | – | – | – | – | IC50 ([3]; DLD1 reporter): > 20 µM |
| CC(C)C[C@H](NC(=O)[C@]12CCN(C1)C(=O)OCCCCCCCCC1(CCCCCCc3ccccc3C(=O)N3CCC[C@@]3(C)C(=O)N[C@@H](CC(=O)O)C(=O)N1)C(=O)N[C@@H](C)C(=O)N[C@@H](CC(=O)O)C(=O)N[C@@H](Cc1cccc(C(=O)O)c1)C(=O)N[C@@H](C)C(=O)N[C@@H](C)C(=O)N[C@@H](Cc1ccccc1)C(=O)N2)C(=O)N[C@@H](Cc1ccsc1)C(=O)N[C@@H](Cc1csc2ccccc12)C(=O)N[C@@H](CCC(N)=O)C(N)=O (stereo partly drawn) [I-2607, BzAm2Allyl-MePro-Asp-B5-Ala-Asp-3COOHF-Ala-Ala-Phe-PyrS2-Leu-3Thi-BztA-Gln-NH2] | 0.904 | – | – | – | – | IC50 ([3]; DLD1 reporter): > 20 µM |
